Laboratory results reported in patent US20150125550A1, “APPLICATION OF 2,9-DI-SEC-BUTYL-1,10-PHENANTHROLINE AS A GLIOBLASTOMA TUMOR CHEMOTHERAPY” (priority 2013, published 2015).
Like-named read-outs stand apart in the source and are kept apart here.

Key:
GL-26 glioma cells [1] = experiment: Propidium iodide cell cycle analysis by flow cytometry; assay type: cell-based, murine (C57BL/6); settings: SBP 48 hours
Description: GL-26 cells were plated at 4000 cells/well in a 96 well plate in GL-26 media (DMEM/F12 supplemented with 10% FCS, 1% penicillin/streptomycin, 1% L-glutamine and 1% non-essential amino acids). The cells were treated 1 day post-plating with 0.1-25 μM SBP for 48 hours. The cells were then detached with Trypsin/EDTA (Cellgro), washed and resuspended at 500,000 cells/ml in ice cold Na+/K+ balanced PBS and fixed by gently adding 70% ethanol and incubating for 2 hrs at 4° C. GL-26 cells were then resuspended in 300-500 μl PI/Triton X-100 staining solution: 10 ml of 0.1% (v/v) Triton X-100 (Sigma) in Na+/K+ balanced PBS with 2 mg DNAse-free RNAse A (Sigma) and 0.40 ml of 500 μg/ml PI (Roche). The stain was allowed to incubate at 37° C. for 15 minutes before acquisition on a BD FacsCanto II flow cytometer.

[2] = Peripheral pathology and liver toxicity in non-tumor bearing mice; assay type: in vivo, C57BL/6 mice
Description: (§1) Histology: For brain tumor histology, mice were perfused intracardially with 4% formaldehyde in Na+/K+ balanced PBS and brains were extracted, incubated in 4% formaldehyde overnight followed by 30% sucrose in Na+/K+ balanced PBS. Brains were flash frozen in isopentane, embedded in optimal cutting temperature compound (OCT), cryosectioned in coronal sections (12 μm) and stained with hematoxylin and eosin. Another cohort of equivalently drug-treated mice was used for liver, lung and gut histology. The mice were then sacrificed on day 19, and the liver, lung and gut tissues were collected and placed in 4% formaldehyde in Na+/K+ balanced PBS overnight. The organs were then placed for 48 hrs in 70% EtOH before paraffin embedding and sectioning at 6 μm. Sections were then stained with hematoxylin and eosin and pathology was assessed blindly and independently by a trained pathologist. A TUNEL staining kit was obtained from TREVIGEN (NeuroTACS II In Situ Apoptosis Detection Kit, Cat#4823-30-K) and used for both ex-vivo slices and in-vitro staining according to manufacturers instructions.
Intra-cardial blood was collected from the non-tumor bearing mice and subjected to centrifugation for 10 minutes to collect the serum. Aspartate transaminase and Alanine transaminase levels were measured in the serum using Bio Scientific (3913 Todd Lane Suite 312 Austin, Tex.) colorimetric kits (Cat#5605-01 and 3460-08 respectively).
To test if the low level of growth inhibition noted in HFF cells translated into lower systemic toxicity in-vivo, non-tumor bearing control and treatment groups of mice were treated with saline and SBP (10 mg/kg), respectively, on days one, seven, and 13. On day 19 following the first SPB or saline injection, the liver, lungs and proximal small intestine were collected for histopathological analysis.

GL-26 glioma = experiment: In-vivo intracranial GL-26 glioma model; design: species or system C57BL/6 mice
Description: Female C57BL/6 mice were obtained from Jackson Laboratories and maintained in a pathogen free environment under IACUC established protocols at the University of California Riverside. Mice were anesthetized with continuous administration of 2.5% isofluorane. Cultured GL-26 cells were harvested by trypsinization and 90,000 GL-26 cells in 3 μL of sterile Na+/K+ balanced PBS were injected intracranially. The injection was administered 1 mm anterior and 2 mm lateral to the junction of the coronal and sagittal sutures (bregma), at a depth of 2 mm using a stereotactic mouse frame. Care was taken in alternating injection order and group assignment (treated vs. non-treated) to assure equal GL-26 cell viability between the two treatment groups. SBP was administered intravenously through the retro-orbital route at a concentration of 10 mg/kg in 200 μL sterile Na+/K+ balanced PBS. Drug was administered one, seven, and 13 days after tumor implantation.
as §1

[3] = system: primary murine astrocytes; experiment: SRB toxicity assay on primary murine astrocytes; assay type: cell-based, murine (C57BL/6); settings: Mus musculus, Astrocyte
Description: (§2) The murine (C57BL/6) glioma cell line, GL-26, which is highly tumorigenic in the C57BL/6 mice. GL-26 cells were cultured in DMEM/F12 supplemented with 10% FCS, 1% penicillin/streptomycin, 1% L-glutamine and 1% non-essential amino acids. Human foreskin fibroblasts (HFFs) were cultured in DMEM/F12 supplemented with 10% FCS and 1% penicillin/streptomycin. Primary murine astrocytes were purified from C57BL/6 neonate brains and cultured in DMEM/F12 supplemented with 10% FCS, 1% non-essential amino acids, 1% Lglutamine, 50 IU/ml penicillin, […] and 10 mM Hepes buffer.
(§3) The sulforhodamine B (SRB) cytotoxicity assays were adapted from Skehan et al. (22). Briefly, either HFF, primary astrocytes or GL-26 cells were plated in 96-well plates at a density of 4,000 cells/well in a volume of 100 µL overnight at 37° C. and 5% CO2. DMSO stock solutions of SBP, MSBP or TMZ were used at a concentration range of 0.1-25 μM for 48 hr before the supernatant was discarded and the cells were fixed for 1 hr with 10% cold trichloroacetic acid (100 μL, per well). Cells used in recovery assay received fresh media for 48 hrs following the 48 hr drug incubation. The plate was then washed 5 times with de-ionized water, air dried, and stained with 0.4% SRB for 10 min (50 μL, per well). After washing 5 times in 1% acetic acid and air-drying, bound SRB was dissolved in 10 mM unbuffered Tris base (pH 10.5; 100 μL, per well). Bound SRB was then read by absorbance at 492 nm on a SpectraMax plate reader (Molecular Devices). The percent survival was then calculated based upon the absorbance values relative to control wells (0 μM SBP in 0.1% DMSO).

GL-26 glioma cells [4] = experiment: TUNEL apoptosis staining of cultured cells; assay type: cell-based, murine (C57BL/6)
Description: as §1

[5] = system: human foreskin fibroblasts (HFFs); experiment: SRB toxicity assay on human foreskin fibroblasts; assay type: cell-based; settings: Fibroblast
Description: as §2, §3

GL-26 glioma cells [6] = experiment: SRB growth assay, GL-26 glioma cells, 48 hr drug incubation; assay type: cell-based, murine (C57BL/6); settings: for IC50: SRB, read-out: IC50 against GL-26 tumor cells
Description: as §2, §3

[7] = 10 mg/kg days 1, 7, 13, day 19, non-tumor bearing mice

For CCC(C)c1ccc2ccc3ccc(C(C)CC)nc3c2n1 (stereo not shown) [Compound 1, 2,9-di-sec-butyl-1,10-phenanthroline], the “cell cycle effect (propidium iodide)” value (GL-26 glioma cells [1]) was “not arrested in the G1 phase”, the “histopathology, duodenum” value ([2]; 10 mg/kg days 1, 7, 13, day 19) was “no general pathology” and the “histopathology, liver” value ([2]; 10 mg/kg days 1, 7, 13, day 19) was “some endothelial damage, but no overt hepatocyte damage”. For the same molecule, the “histopathology, lung” value ([2]; 10 mg/kg days 1, 7, 13, day 19) was “no overt pathology”, the “serum alanine transaminase (ALT)” value [2, 7] was 49.71±14.61 U/L and the “serum aspartate transaminase (AST)” value [2, 7] was 212.3±14.62 U/L. For the same molecule, the “side effects in healthy mice” value ([2]; mouse, in vivo) was “did not appear to experience any significant side effects”, the “body weight regained, % of initial weight” value (GL-26 glioma; 10 mg/kg i.v. days 1, 7, 13, 19-day trial) was 98.1±3.4% and the “tumor section area (pixel area) at the largest tumor cross-section” value (GL-26 glioma; 10 mg/kg i.v. days 1, 7, 13, sacrificed day 19, N=3) was 5489±1369. The “in situ TUNEL staining of brain tumor sections” value (GL-26 glioma; day 19) was “dark brown cytoplasmic and nuclear staining indicative of cell necrosis and increased DNA fragmentation”, the “tumors in treated mice smaller than in untreated control mice” value (GL-26 glioma; mouse, in vivo) was 5-10 times and the inhibition at 6 µM ([3]; 6 μM, 48 hours, read-out: astrocyte growth inhibition) was 18%. The inhibition at 25 µM ([3]; 25 μM, 48 hours, read-out: astrocyte growth inhibition) was 37.3 ± 0.9%, the IC50 ([3]; not reached at 25 μM, read-out: IC50 on non-cancerous glial cells (astrocytes)) was greater than 25 µM and the “apoptosis (TUNEL) in cultured GL-26 cells” value (GL-26 glioma cells [4]) was “kills GL-26 cells by inducing apoptosis”. It also gave an inhibition at 6 µM ([5]; 6 μM, 48 hours, read-out: HFF growth inhibition) of roughly 20%, an inhibition at 25 µM ([5]; 25 μM, 48 hours, read-out: HFF growth inhibition) of 36.9 ± 1.3% and an IC50 ([5]; not reached at 25 μM, read-out: IC50 on non-cancerous human fibroblast cells) greater than 25 µM. The inhibition at 6 µM (GL-26 glioma cells [6]; Mus musculus, GL26, 6 μM, read-out: GL-26 cell growth inhibition) was 66 ± 1%, the inhibition at 25 µM (GL-26 glioma cells [6]; Mus musculus, GL26, 25 μM, read-out: GL-26 cell growth inhibition) was 67 ± 0.5% and the IC50 (GL-26 glioma cells [6]; Mus musculus, GL26, 48 h) was 3 to 6 µM. For the same molecule, the IC50 (GL-26 glioma cells [6]; listed as SBP) was 3 µM.
